According to patent publication US12391919B2, “Culture medium, coating matrix and method for maturing midbrain dopaminergic progenitor cells” (NUWACELL BIOTECHNOLOGIES CO., LTD., priority 2022, dated 2025):

Tested on: imDAPs
Assay: imDAP expansion: cell morphology, cell number (Vi-cell cytometer), expansion fold, Population Doubling Time
Assay type: cell-based, human
Conditions: for attachment and morphology of imDAPs on the coated surface: Example 8, coating 1 μg/cm^2, day 4, FIG. 4A
Experimental: imDAPs were produced according to the method described in CN201910169525.0. The imDAPs (P0) were seeded on VTN-coated plates (1 μg/cm^2) at a density of 1×10^5 cells/cm^2 in the expansion medium (50% DMEM/F12, 50% Neurobasal™ medium, 1% (v/v) Glutamax, 2% (v/v) B27 (50×), 0.2 μM LDN193189, 3 μM CHIR99021, 100 ng/mL FGF8b) in the absence or presence of 5 μM Blebbistatin. In case where Blebbistatin is present, Blebbistatin was either removed 24 hrs after plating or present throughout the culture period. The medium was changed every day for 5 days.
imDAPs were produced according to the method described in CN201910169525.0. The imDAPs (P0) were seeded on VTN-coated plates (1 μg/cm^2) at a density of 1×10^5 cells/cm^2 in the expansion medium (50% DMEM/F12, 50% Neurobasal™ medium, 1% (v/v) Glutamax, 2% (v/v) B27 (50×), 3 μM CHIR99021, 100 ng/mL FGF8b, […]) in the absence or presence of 0.2 μM LDN193189. The medium was changed every day for 5 days.
imDAPs were produced according to the method described in CN201910169525.0. The imDAPs (P0) were seeded on VTN-coated plates (1 μg/cm^2) at a density of 1×10^5 cells/cm^2 in the expansion medium (50% DMEM/F12, 50% Neurobasal™ medium, 1% (v/v) Glutamax, 2% (v/v) B27 (50×), 0.2 μM LDN193189, 3 μM CHIR99021, 100 ng/mL FGF8b, 5 μM Blebbistatin). The medium was changed every day. When imDAPs reach 100% confluence (4-5 days), cells were passaged enzymatically with 1× TrypLE, centrifuged at 250 g for 5 minutes, counted and replaced on new VTN-coated plates (1 μg/cm^2) at a density of 1×10^5 cells/cm^2 in the expansion medium. imDAPs were continuously expanded for 6 passages. At each passage, imDAPs were harvested at an expansion fold 5˜10 (over the initial number of imDAPs plated).
imDAPs were produced according to the method described in CN201910169525.0. The imDAPs (P0) were seeded on DLL4-coated ([…]), VTN-coated (1 μg/cm^2) and DLL4/VTN-coated ([…]) plates at a low density of 1×10^4 cells/cm^2 respectively, and cultured in the expansion medium in the absence or presence of 5 µM SB431542. Medium was replaced every 3rd day until reaching 100% confluence (6 days) for cell collection. The typical cell morphology on day 4 was recorded (FIG. 4A). The cell number of each group was counted by Vi-cell cytometer (FIG. 4B). The cells of each group were stained with Foxa2-PE antibody (BD, #561589), the percentage of Foxa2+ imDAPs were analyzed by flow cytometry (FIG. 4C). The expansion medium used in this example contained the following components: 50% DMEM/F12, 50% Neurobasal™ medium, 1% (v/v) Glutamax, 1% (v/v) B27, 50 μg/ml ascorbic acid, 0.2 μM LDN193189, 100 ng/ml FGF8b, 3 μM CHIR99021 and 10 μM Y27632.
imDAPs were produced according to the method described in CN201910169525.0. The imDAPs (P0) were seeded on DLL4/VTN-coated (1 μg/cm^2 for each) plates at a low density of 1×10^4 cells/cm^2, and cultured in the expansion medium (EM1, EM2, EM3, EM4). Medium was replaced every 3rd day until reaching 100% confluence (6 days) for cell collection. EM1 used in Example 9 contained the following components: 50% DMEM/F12, 50% Neurobasal™ medium, 1% (v/v) Glutamax, 1% (v/v) B27 (50×), […], 3 μM CHIR99021, 5 μM SB431542 and 10 μM Y27632. EM2 used in Example 9 contained the following components: 50% DMEM/F12, 50% Neurobasal™ medium, 1% (v/v) Glutamax, 1% (v/v) B27 (50×), 50 μg/ml ascorbic acid, […] LDN193189, 3 μM CHIR99021, 5 μM SB431542 and 10 μM Y27632. EM3 used in Example 9 contained the following components: 50% DMEM/F12, 50% Neurobasal™ medium, 1% (v/v) Glutamax, 1% (v/v) B27 (50×), 50 μg/mL ascorbic acid, […], 100 ng/ml FGF8b, 3 μM CHIR99021, 5 μM SB431542 and 10 μM Y27632. EM4 used in Example 9 contained the following components: 50% DMEM/F12, 50% Neurobasal™ medium, 1% (v/v) Glutamax, 1% (v/v) B27 (50×), 50 μg/ml ascorbic acid, 0.2 μM LDN193189, 10 ng/ml FGF2, 3 μM CHIR99021, 5 μM SB431542 and 10 μM Y27632. […]

c1ccc2c(-c3cnn4cc(-c5ccc(N6CCNCC6)cc5)cnc34)ccnc2c1 [LDN193189]
cell morphology of expanded imDAPs (Example 2, with vs without 0.2 μM LDN193189, VTN-coated plates, 5 days, FIG. 1B): cultured without LDN193189 showed more flattened morphology | imDAP expansion (overall conclusion) (Example 9): had no additional effects on imDAP expansion | cell number during expansion (Example 9, added to medium with CHIR99021, SB431542 and Y27632, DLL4/VTN-coated, 6 days, FIG. 5B): had no additional effect on increasing the cell number during expansion

DLL4: Notch agonist used as second coating matrix
attachment and morphology of imDAPs on the coated surface: could not support the attachment of imDAPs

B1: VTN: vitronectin, first coating matrix that supports cell adhesion (protein, UniProt P04004 20-478, looked up)
Vitronectin: DQESCKGRCTEGFNVDKKCQCDELCSYYQSCCTDYTAECKPQVTRGDVFTMPEDEYTVYDDGEEKNNATVHEQVGGPSLTSDLQAQSKGNPEQTPVLKPEEEAPAPEVGASKPEGIDSRPETLHPGRPQPPAEEELCSGKPFDAFTDLKNGSLFAFRGQYCYELDEKAVRPGYPKLIRDVWGIEGPIDAAFTRINCQGKTYLFKGSQYWRFEDGVLDPDYPRNISDGFDGIPDNVDAALALPAHSYSGRERVYFFKGKQYWEYQFQHQPSQEECEGSSLSAVFEHFAMMQRDSWEDIFELLFWGRTSAGTRQPQFISRDWHGVPGQVDAAMAGRIYISGMAPRPSLAKKQRFRHRNRKGYRSQRGHSRGRNQNSRRPSRATWLSLFSSEESNLGANNYDDYRMDWLVPATCEPIQSVFFFSGDKYYRVNLRTRRVDTVDPPYPRSIAQYWLGCPAPGHL
attachment and morphology of imDAPs on the coated surface: showed flattened morphology
